In ChEMBL document CHEMBL1141912, “Novel beta-(imidazol-4-yl)-beta-amino acids: solid-phase synthesis and study of their inhibitory activity against geranylgeranyl protein transferase type I” (Bioorg Med Chem Lett, 2005):

molecular target: Protein farnesyltransferase (Homo sapiens, UniProt P49354+P49356); assay: Inhibition of Farnesyltransferase; type: protein-complex assay

SMILES	IC50
Brc1ccc(CCN(Cc2ccc(Oc3ccccc3)cc2)Cc2c[nH]cn2)cc1	> 10 µM
Fc1ccc(CCN(Cc2ccc(Oc3ccccc3)cc2)Cc2c[nH]cn2)cc1	> 10 µM

molecular target: T1, Geranylgeranyl transferase type I (Homo sapiens, UniProt P49354+P53609); assay: Percent inhibition of Geranylgeranyl transferase type I at 10 uM; type: protein-complex assay

SMILES	inhibition
CCCCOc1ccc(S(=O)(=O)N(CCc2ccc(F)cc2)C(CC(=O)O)c2c[nH]cn2)cc1 (centres undefined)	78%
CCCCOc1ccc(S(=O)(=O)N(CC2CCCCC2)C(CC(=O)O)c2c[nH]cn2)cc1 (centres undefined)	30%
Brc1ccc(CCN(Cc2ccc(Oc3ccccc3)cc2)Cc2c[nH]cn2)cc1	88%
CCCCCCCN(Cc1ccc(Oc2ccccc2)cc1)Cc1c[nH]cn1	40%
O=C(O)CC(c1c[nH]cn1)N(CC1CCCCC1)S(=O)(=O)c1cc(Cl)sc1Cl (centres undefined)	21%
Brc1ccc(CCN(Cc2ccc3ccccc3c2)Cc2c[nH]cn2)cc1	69%
O=C(O)CC(c1c[nH]cn1)N(CCc1cccs1)Cc1nc[nH]n1 (centres undefined)	16%
O=C(O)CC(c1c[nH]cn1)N(CC(c1ccccc1)c1ccccc1)C1CCN(Cc2ccccc2)C1 (centres undefined)	18%
O=C(O)CC(c1c[nH]cn1)N(CCCc1ccccc1)Cc1cccc2ccccc12 (centres undefined)	74%
Brc1ccc(CCN(Cc2ccc(-c3ccccc3)cc2)Cc2c[nH]cn2)cc1	77%
CCCCCCN(Cc1nc[nH]n1)C(CC(=O)O)c1c[nH]cn1 (centres undefined)	3%
O=C(O)CC(c1c[nH]cn1)N(CCCCCCO)Cc1c[nH]c(-c2ccccc2)n1 (centres undefined)	0%
O=C(O)CC(NC1CCN(Cc2ccccc2)CC1)c1c[nH]cn1 (centres undefined)	21%
O=C(O)CC(c1c[nH]cn1)N(CCCCCCO)CC(c1ccccc1)c1ccccc1 (centres undefined)	0%
Cc1ccc(CCN(Cc2ccc(Oc3ccccc3)cc2)Cc2c[nH]cn2)cc1	72%
O=C(O)CC(c1c[nH]cn1)N(Cc1nc[nH]n1)C1CCN(Cc2ccccc2)CC1 (centres undefined)	11%
O=C(O)CC(c1c[nH]cn1)N(Cc1nc[nH]n1)CC1CCCCC1 (centres undefined)	8%
O=C(O)CC(c1c[nH]cn1)N(CCc1ccc(F)cc1)S(=O)(=O)c1cc(Cl)sc1Cl (centres undefined)	53%
c1cncc(CN(Cc2c[nH]cn2)Cc2ccco2)c1	23%
CC(C)CCN(Cc1ccccn1)C(CC(=O)O)c1c[nH]cn1 (centres undefined)	10%
O=C(O)CC(c1c[nH]cn1)N(CCc1ccc(F)cc1)Cc1c[nH]c(-c2ccccc2)n1 (centres undefined)	35%
Cc1ccccc1CN(Cc1ccc(C(C)(C)C)cc1)Cc1c[nH]cn1	24%
O=C(O)CC(c1c[nH]cn1)N(CCc1cccs1)Cc1ccccn1 (centres undefined)	11%
Fc1ccc(CCN(Cc2ccc(Oc3ccccc3)cc2)Cc2c[nH]cn2)cc1	78%

molecular target: T1, Geranylgeranyl transferase type I; assay: Inhibition of Geranylgeranyl transferase type I; type: protein-complex assay

SMILES	IC50
O=C(O)CC(c1cnc[nH]1)N(CCc1ccc(F)cc1)Cc1ccc(Oc2ccccc2)cc1 (centres undefined)	90 nM
Brc1ccc(CCN(Cc2ccc(Oc3ccccc3)cc2)Cc2c[nH]cn2)cc1	256 nM
O=C(O)CC(c1cnc[nH]1)N(CCc1ccc(F)cc1)Cc1ccc(-c2ccccc2)cc1 (centres undefined)	1100 nM
CCCCOc1ccc(S(=O)(=O)N(CCc2ccc(F)cc2)C(CC(=O)O)c2cnc[nH]2)cc1 (centres undefined)	1070 nM
COC(=O)C(CC(C)C)NC(=O)c1ccc(NCC(N)CS)cc1-c1cccc2ccccc12 (centres undefined)	150 nM
O=C(O)CC(c1cnc[nH]1)N(CCc1cccs1)Cc1ccc(-c2ccccc2)cc1 (centres undefined)	1070 nM
Fc1ccc(CCN(Cc2ccc(Oc3ccccc3)cc2)Cc2c[nH]cn2)cc1	460 nM
O=C(O)CC(c1cnc[nH]1)N(CCCCc1ccccc1)Cc1ccc(Oc2ccccc2)cc1 (centres undefined)	860 nM
